From the supplement of paper PMC4862054

Key:
HCC1937 = experiment: normalised viability (% of control), CellTiter-Blue; higher = more viable cells (about 100 = DMSO control); conditions: 100 nM; incubation time: 72 h
Method: (§1)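 DSRT, CellTiter-Blue viability, 72 h incubation. Signal is normalised to DMSO and benzethonium chloride controls. Value is the normalised response at dose 3.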

CAL-51 = experiment: as above; conditions: 10 nM; incubation time: 72 h
Method: as §1

MFM-223 = experiment: as above; conditions: 100 nM; incubation time: 72 h
Method: as §1

HDQ-P1 [1] = experiment: as above; conditions: 10 nM; incubation time: 72 h
Method: as §1

CAL-148 = experiment: as above; conditions: 10 nM; incubation time: 72 h
Method: as §1

BT-549 [2] = experiment: as above; conditions: 100 nM; incubation time: 72 h
Method: as §1

Hs578T [3] = experiment: as above; conditions: 100 nM; incubation time: 72 h
Method: as §1

CAL-120 = experiment: as above; conditions: 100 nM; incubation time: 72 h
Method: as §1

CAL-85-1 [4] = experiment: as above; conditions: 10 nM; incubation time: 72 h
Method: as §1

BT-474 = experiment: as above; conditions: 100 nM; incubation time: 72 h
Method: as §1

MDA-MB-231 = experiment: as above; conditions: 100 nM; incubation time: 72 h
Method: as §1

MDA-MB-468 = experiment: as above; conditions: 100 nM; incubation time: 72 h
Method: as §1

MDA-MB-436 [5] = experiment: as above; conditions: 100 nM; incubation time: 72 h
Method: as §1

HCC1599 [6] = experiment: as above; conditions: 100 nM; incubation time: 72 h
Method: as §1

MDA-MB-453 = experiment: as above; conditions: 10 nM; incubation time: 72 h
Method: as §1

DU-4475 [7] = experiment: as above; conditions: 10 nM; incubation time: 72 h
Method: as §1

HCC1143 [8] = experiment: as above; conditions: 100 nM; incubation time: 72 h
Method: as §1

SK-BR-3 = experiment: as above; conditions: 100 nM; incubation time: 72 h
Method: as §1

MCF-10A = experiment: drug sensitivity score (DSS), CellTiter-Glo (DSS (AUC-based score)); higher = stronger drug effect (viability inhibition or cytotoxicity); extreme values may be limits of the assay; conditions: incubation time: 72 h
Outline: (§2)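 Breast cancer cells were seeded into 384-well plates containing compound at 5 concentrations in 10-fold steps over a compound-specific 10,000-fold range and incubated 72 h. After CellTox Green and CellTiter-Glo readings, each plate was normalised to 0.1 % DMSO and a positive kill control. The drug sensitivity score rests on the area under the fitted dose-response curve.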

HDQ-P1 [9] = experiment: as above; conditions: incubation time: 72 h
Outline: as §2

BT-549 [10] = experiment: as above; conditions: incubation time: 72 h
Outline: as §2

Hs578T [11] = experiment: as above; conditions: incubation time: 72 h
Outline: as §2

CAL-85-1 [12] = experiment: as above; conditions: incubation time: 72 h
Outline: as §2

MDA-MB-436 [13] = experiment: as above; conditions: incubation time: 72 h
Outline: as §2

HCC1599 [14] = experiment: as above; conditions: incubation time: 72 h
Outline: as §2

DU-4475 [15] = experiment: as above; conditions: incubation time: 72 h
Outline: as §2

HCC1143 [16] = experiment: as above; conditions: incubation time: 72 h
Outline: as §2

HDQ-P1 [17] = experiment: normalised viability (% of control), CellTiter-Blue; higher = more viable cells (about 100 = DMSO control); conditions: incubation time: 72 h
Method: (§3)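 DSRT, CellTiter-Blue viability, 72 h incubation. Signal is normalised to DMSO and benzethonium chloride controls. Value is the normalised response at dose 7.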

CAL-85-1 [18] = experiment: as above; conditions: incubation time: 72 h
Method: as §3

In the case of `CC(=O)c1c(C)c2cnc(Nc3ccc(N4CCNCC4)cn3)nc2n(C2CCCC2)c1=O`, the normalised viability (HCC1937) is reported as 97.2%, the normalised viability (CAL-51) is reported as 107% and the normalised viability (MFM-223) is reported as 88.1%. It also gave a normalised viability (HDQ-P1 [1]) of 108%, a normalised viability (CAL-148) of 91.3% and a normalised viability (BT-549 [2]) of 108%. The normalised viability (Hs578T [3]) was 66.3%, the normalised viability (CAL-120) was 73.8% and the normalised viability (CAL-85-1 [4]) was 102%. It also gave a normalised viability (BT-474) of 95.7%, a normalised viability (MDA-MB-231) of 88.5% and a normalised viability (MDA-MB-468) of 105%. The normalised viability (MDA-MB-436 [5]) was 111%, the normalised viability (HCC1599 [6]) was 88.2% and the normalised viability (MDA-MB-453) was 104%. For the same compound, the normalised viability (DU-4475 [7]) was 107%, the normalised viability (HCC1143 [8]) was 82.3% and the normalised viability (SK-BR-3) was 78%.

Work on `Cn1cc(C2=Nc3cc(NC(=O)C(N)C4CCCCC4)cc4c3C2=CNNC4=O)cn1` (stereo not given) yielded a drug sensitivity score (MCF-10A) of 2.96, a drug sensitivity score (HDQ-P1 [9]) of 3.25 and a drug sensitivity score (BT-549 [10]) of 14.6. The drug sensitivity score (Hs578T [11]) was 12.1, the drug sensitivity score (CAL-85-1 [12]) was 13.3 and the drug sensitivity score (MDA-MB-436 [13]) was 9.88. It also gave a drug sensitivity score (HCC1599 [14]) of 20.3, a drug sensitivity score (DU-4475 [15]) of 2.68 and a drug sensitivity score (HCC1143 [16]) of 7.81. For the same compound, the normalised viability (HCC1937) was 90.7%, the normalised viability (CAL-51) was 98.2% and the normalised viability (MFM-223) was 69.2%. For the same compound, the normalised viability (HDQ-P1 [1]) was 98.4%, the normalised viability (CAL-148) was 93.1% and the normalised viability (BT-549 [2]) was 100%. The normalised viability (Hs578T [3]) was 87.3%, the normalised viability (CAL-120) was 89.9% and the normalised viability (CAL-85-1 [4]) was 81.8%. The normalised viability (BT-474) was 108%, the normalised viability (MDA-MB-231) was 83.3% and the normalised viability (MDA-MB-468) was 106%. The normalised viability (MDA-MB-436 [5]) was 93.4%, the normalised viability (HCC1599 [6]) was 75.9% and the normalised viability (MDA-MB-453) was 85.9%. For the same compound, the normalised viability (DU-4475 [7]) was 108%, the normalised viability (HCC1143 [8]) was 101% and the normalised viability (SK-BR-3) was 38.4%.

For `Cn1cc(C2=Nc3cc(NC(=O)C(N)C4CCCCC4)cc4c3C2=CNNC4=O)cn1` (stereo not given) (1000 nM), the normalised viability (HDQ-P1 [17]) was 67.1% and the normalised viability (CAL-85-1 [18]) was 64%.

In the case of `COc1cc2c(cc1O)CC[C@@H]1[C@@H]2CC[C@]2(C)[C@@H](O)CC[C@@H]12` [2-methoxyestradiol], the drug sensitivity score (MCF-10A) is reported as 0, the drug sensitivity score (HDQ-P1 [9]) is reported as 0.369 and the drug sensitivity score (BT-549 [10]) is reported as 10.1. It also gave a drug sensitivity score (Hs578T [11]) of 7.49, a drug sensitivity score (CAL-85-1 [12]) of 5.61 and a drug sensitivity score (MDA-MB-436 [13]) of 6.35. The drug sensitivity score (HCC1599 [14]) was 2.6, the drug sensitivity score (DU-4475 [15]) was 2.41 and the drug sensitivity score (HCC1143 [16]) was 3.67. It also gave a normalised viability (HCC1937) of 103%, a normalised viability (CAL-51) of 118% and a normalised viability (MFM-223) of 108%. It also gave a normalised viability (HDQ-P1 [1]) of 98.8%, a normalised viability (CAL-148) of 93.3% and a normalised viability (BT-549 [2]) of 91.7%. It also gave a normalised viability (Hs578T [3]) of 103%, a normalised viability (CAL-120) of 87.9% and a normalised viability (CAL-85-1 [4]) of 101%. It also gave a normalised viability (BT-474) of 121%, a normalised viability (MDA-MB-231) of 94.3% and a normalised viability (MDA-MB-468) of 102%. It also gave a normalised viability (MDA-MB-436 [5]) of 100%, a normalised viability (HCC1599 [6]) of 95% and a normalised viability (MDA-MB-453) of 95.3%. For the same compound, the normalised viability (DU-4475 [7]) was 106%, the normalised viability (HCC1143 [8]) was 99.8% and the normalised viability (SK-BR-3) was 99.2%.

Work on `COc1cc2c(cc1O)CC[C@@H]1[C@@H]2CC[C@]2(C)[C@@H](O)CC[C@@H]12` [2-methoxyestradiol] (1000 nM) yielded a normalised viability (HDQ-P1 [17]) of 83% and a normalised viability (CAL-85-1 [18]) of 86.8%.

With `Cc1sc2c(c1C)C(c1ccc(Cl)cc1)=N[C@@H](CC(=O)OC(C)(C)C)c1nnc(C)n1-2` [(+)JQ1] (1000 nM) the normalised viability (HDQ-P1 [17]) was 106% and the normalised viability (CAL-85-1 [18]) was 56.7%.

With `CC1(C)CCC(CN2CCN(c3ccc(C(=O)NS(=O)(=O)c4ccc(NCC5CCOCC5)c([N+](=O)[O-])c4)c(Oc4cnc5[nH]ccc5c4)c3)CC2)=C(c2ccc(Cl)cc2)C1` [ABT-199] the drug sensitivity score (MCF-10A) was 0, the drug sensitivity score (HDQ-P1 [9]) was 0 and the drug sensitivity score (BT-549 [10]) was 0. The drug sensitivity score (Hs578T [11]) was 0, the drug sensitivity score (CAL-85-1 [12]) was 0 and the drug sensitivity score (MDA-MB-436 [13]) was 0. The drug sensitivity score (HCC1599 [14]) was 0, the drug sensitivity score (DU-4475 [15]) was 0 and the drug sensitivity score (HCC1143 [16]) was 0.

`Oc1ncnc2[nH]ncc12` [Allopurinol] (1000 nM) showed a normalised viability (HDQ-P1 [17]) of 88% and a normalised viability (CAL-85-1 [18]) of 96.3%.

For `O=C1CN2Cc3c(ccc(Cl)c3Cl)N=C2N1` [Anagrelide] (1000 nM), the normalised viability (HDQ-P1 [17]) was 105% and the normalised viability (CAL-85-1 [18]) was 86.1%.

In the case of `Nc1ncn([C@@H]2O[C@H](CO)[C@@H](O)[C@H]2O)c(=O)n1` [Azacitidine] (1000 nM), the normalised viability (HDQ-P1 [17]) is reported as 106% and the normalised viability (CAL-85-1 [18]) is reported as 91.4%.

Work on `O=NN(CCCl)C(=O)NCCCl` [Carmustine] (1000 nM) yielded a normalised viability (HDQ-P1 [17]) of 105% and a normalised viability (CAL-85-1 [18]) of 88.4%.
